Reference: patent publication US20050038022A1, “Method for treatment of cancer and compositions for use therein” (Unisearch Limited, priority 2001, published 2005)

Tests used:
[1] = tested on: liver, colorectal, prostate and leukeamic cell lines; test: Albendazole/ABS side by side in various cell lines (general); assay type: cell-based; details: 5 days
Description: In order to be able to test ABS, a proper solvent had to be found. […] Therefore to allow direct comparison between the 2 compounds, all subsequent experiments were run using 0.5% DMSO for both ABS and albendazole. In the cell lines examined, albendazole produced very similar results to what we had previously reported for the drug in liver cancer cells.
Both albendazole and ABS were tested side by side against various cell lines as follows: • Liver—HepGZ Hep3B, SKHEP-1 • Colorectal—170, LOVO, HT-29 • Prostate—PC3, LNCap, Du145 • Leukeamic—HL60
The fist 9 cell lines were used to compare effectiveness and potency while, the last one was used to assess toxicity on bone marrow (as a rough guide).
Cells were treated with various concentrations of each compound for a period of 5 days.

Hep1-6 = test: [3H]thymidine incorporation assay, Hep1-6; assay type: cell-based, mice; details: 5 days
Description: (§1) HepG2, Hep3-B, Hep1-6, SKHEP-1, PLC/PRF/5, and HTC cells were obtained from European Collection of Cell Cultures (ECACC; U.K), Novikoff was obtained from Cancer Research Centre (DKFZ) Heidelberg, Germany. Cells were cultured in MEM or DMEM supplemented with 10% FBS, 50 units/ml penicillin, 50 units/ml streptomycin, 25 μg/ml amphotericin B (Gibco, Grand Island, N.Y.) and maintained subconfluent at 37° C. in humidified incubators containing 5% CO2. Albendazole (Sigma, Australian subsidiary) was dissolved in absolute ethanol at concentrations that were 1000-fold higher than the final medium concentration.

[2] = at all times after a 400 mg oral dose; cited from earlier work
NIH:OVCAR-3 = test: Thymidine assay, ovarian cancer cell line; assay type: cell-based, human
Description: To study the feasibility of using albendazole in the treatment of peritoneal disease, the human ovarian cancer cell line NIH:OVCAR-3 was selected. This is a cell line that grows quite slowly but is tumorogenic in nude mice therefore allowing for the drug to be studied under both in-vitro and in-vivo conditions.
After finding the right conditions for the growth of cells in culture, cells were treated for 5 days with various concentrations of albendazole.

[3] = tested on: SKHEP-1 subcutaneous tumor; test: Tumor formation in nude mice; assay type: in vivo, BALB/c Nu/Nu mice; details: for maximum proliferation index (MPI), Ki-67: mean±s.e.m.
Description: 6 to 10 weeks old male BALB/c Nu/Nu mice (Animal Resources Center, Perth, Australia) were inoculated subcutaneously with 10^6 SKHEP-1 cells into the right flank. 24 hours after inoculation animals were randomly assigned to one of the treatment groups (n=10 per group), receiving 25, 50 or 150 mg/kg twice daily oral albendazole suspended in sesame oil for 20 days.
The control group was treated with the vehicle (sesame oil). Using vernier calipers, tumor diameter (mm) was measured on day eight and then every three days up to day 20-post tumor cell inoculation. Tumor volumes were calculated using the formula: ab^2/2 where a and b are the […] diameters in millimeters, respectively and a piece of the tumor was preserved in paraffin for immunohistochemical determination of maximum proliferation index (MPI). Here, after fixation, the specimen was processed for the detection of Ki-67 antigen with the monoclonal antibody MIB1 according to the method described by McCormick.
The animal model was chosen on the basis of SKHEP-1 being the most tumorigenic human liver cancer cell line in nude mice and previous experience with the model.

HCC cell lines = test: [3H]thymidine incorporation, all HCC cell lines (summary); details: 1000 nM albendazole
Description: For the study of [^3H]thymidine incorporation, adherent cells (5-10×10^4) were plated onto 24-well Corning tissue culture dishes and were exposed to culture medium (5% FBS) containing the vehicle (0.1% ethanol) or different concentrations of albendazole (10^−8 to 10^−6 M). For Novikoff, a detached rat cell line, 2500 cells were suspended in 2 ml of DMEM (5% FBS) and kept under the same condition as for attached cells. Media were replaced with fresh media on alternate days. At the end of the treatment period (5 days), cell cultures were assayed for thymidine incorporation by the addition of 0.5 μCi of [^3H]thymidine (60 Ci/mmol. ICN Biochem, Irvine, Calif.) to each well for the last 4 h of culture. The amount of radioactivity incorporated into cells was determined using a β-scintillation counter. […] For the recovery experiments, SKHEP-1 cells were treated for 1 day with different concentrations of albendazole and then either assayed for [^3H]thymidine incorporation or the medium was replaced and the cells treated with fresh medium with out the drug for a further 4 days at the end of which, [^3H] thymidine incorporation assay was performed.
[^3H]Thymidine incorporation assay was used to determine the effect of albendazole on cell proliferation in a number of human (HepG2, Hep3-B, PLC/PRF/5, SKHEP-1), rat (HTC and Novikoff) and mice (Hep1-6) HCC cell lines.

PLC/PRF/5 = test: [3H]thymidine incorporation assay, PLC/PRF/5; assay type: cell-based, human; details: 5 days
Description: as §1

HepG2 = test: [3H]thymidine incorporation assay, HepG2; assay type: cell-based, human; details: 5 days
Description: as §1

SKHEP-1 cells = test: Cell counts (trypan blue exclusion); assay type: cell-based, human
Description: SKHEP-1 cells (2.5×10^4) were plated in six well plates. The cell treatment procedure was as described for the thymidine assay. At the end of the treatment period (1, 3 or 5 days), cells were trypsinized and counted with a hemocytometer using the trypan blue exclusion method. In all experiments, cells treated with the medium containing 0.1% ethanol were taken as the control for albendazole treated cells. All counts were obtained in quadruplicate and each experiment was repeated at least twice.

Novikoff = test: [3H]thymidine incorporation assay, Novikoff; assay type: cell-based, rat; details: 5 days
Description: as §1

[4] = tested on: liver (HepG2, Hep3B, PLC/PRF/5, SKHEP-1, Hep1-6, HTC, Novikoff) and colorectal cancer (C-170, HT-29 and LOVO) cell lines; test: [3H]thymidine incorporation, liver and colorectal cancer cell lines (summary); assay type: cell-based, human and animal; details: liver or colorectal cancer cells
Source text: The present inventors tested BZs and particularly albendazole against a range of liver (HepG2, Hep3B, PLC/PRF/5, SKHEP-1, Hep1-6, HTC, Novikoff) and colorectal cancer (C-170, HT-29 and LOVO) cell lines.

**Q.** What does the source list for `CCCSc1ccc2nc(NC(=O)OC)[nH]c2c1` [albendazole, methyl 5-propylthio-1H-benzimidazole-2-yl carbamate]?
**A.** antiproliferative activity at 0.25 micromoles/L ([1]; 0.25 micromoles/L): dramatically increasing; inhibition at 1 µM ([1]; 120 h, 1 micromoles/L): ~100%; concentration at which antiproliferative activity becomes evident ([1]; 0.5% DMSO, in general): 0.01 µmol/L; [3H]thymidine incorporation (Hep1-6; Hep1-6, albendazole 10 nM): 97.7 ± 4.3 % control; [3H]thymidine incorporation (Hep1-6; Hep1-6, albendazole 100 nM): 79.5 ± 3.2 % control; [3H]thymidine incorporation (Hep1-6; Hep1-6, albendazole 500 nM): 28.1 ± 2.5 % control; [3H]thymidine incorporation (Hep1-6; Hep1-6, albendazole 1000 nM): 5.6 ± 0.6 % control; concentration of the unchanged drug [2]: below the detection limits; inhibition at 0.25 µM (NIH:OVCAR-3; Homo sapiens, 120 h, OVCAR-3, 0.25 micromoles/L, 5 days): ~90%; inhibition at 0.5 µM (NIH:OVCAR-3; Homo sapiens, 120 h, OVCAR-3, 0.5 micromoles/L, 5 days, read-out: inhibition of cell growth): 100%; lowest concentration with an effect on cell proliferation (NIH:OVCAR-3; OVCAR-3, 5 days): 0.001 µmol/L; inhibition of proliferation (3H-thymidine uptake) (NIH:OVCAR-3; OVCAR-3 in vitro (FIG. 5)): dose dependent inhibition of proliferation; degree of activity relative to liver or colorectal cancer cells (NIH:OVCAR-3; OVCAR-3 versus liver or colorectal cancer cells, fold): ~10; maximum proliferation index (MPI), Ki-67 ([3]; 50 mg/kg dose): 22.54±1.53; maximum proliferation index (MPI), Ki-67 ([3]; 150 mg/kg dose): 13.36±3.04; mean tumor volume ([3]; 300 mg/kg dose oral in sesame oil, 20 days post inoculation, p<0.001): 12.0±7.8 mm^3; tumor growth ([3]; 50 and 150 mg/kg per day oral): slightly but not significantly retarded; thymidine incorporation (HCC cell lines): less than 20 % of control values; [3H]thymidine incorporation (PLC/PRF/5; PLC/PRF/5, albendazole 10 nM): 92.7 ± 4.7 % control; [3H]thymidine incorporation (PLC/PRF/5; PLC/PRF/5, albendazole 100 nM): 69.4 ± 5.2 % control; [3H]thymidine incorporation (PLC/PRF/5; PLC/PRF/5, albendazole 500 nM): 26.9 ± 2.7 % control; [3H]thymidine incorporation (PLC/PRF/5; PLC/PRF/5, albendazole 1000 nM): 18.4 ± 2.1 % control; [3H]thymidine incorporation (HepG2; HepG2, albendazole 10 nM): 93.1 ± 5.6 % control; [3H]thymidine incorporation (HepG2; HepG2, albendazole 100 nM): 72.9 ± 6.3 % control; [3H]thymidine incorporation (HepG2; HepG2, albendazole 500 nM): 12.2 ± 2.9 % control; number of viable cells compared to control (SKHEP-1 cells; SKHEP-1, 1000 nM, p<0.001): significantly reduced in number; number of viable cells (SKHEP-1 cells; SKHEP-1, 1, 3 or 5 days, 100, 500 or 1000 nM (FIG. 2)): dose dependent decline in the number of cells; [3H]thymidine incorporation (Novikoff; albendazole 10 nM): 96.5 ± 8.8 % control; [3H]thymidine incorporation (Novikoff; albendazole 100 nM): 71.6 ± 5.9 % control; [3H]thymidine incorporation (Novikoff; albendazole 500 nM): 29.2 ± 3.3 % control; [3H]thymidine incorporation (Novikoff; albendazole 1000 nM): 10.3 ± 1.8 % control; concentration at which inhibitory activity starts [4]: around 0.1 micromoles/L
